From the supplement of paper PMC11451515

System: SEM cells
Assay: cell viability relative to DMSO control; higher = less cytotoxic
Settings: 48 h
Procedure, shortened: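 Viability, reported as a per-plate percentage of DMSO wells with cell-free wells as background, came from CellTiter-Glo One luminescence. Reading took place after 48 h at 37°C. Before that, NOMO1 or SEM (500 cells/well) or P12-Ichikawa (1000 cells/well) leukemia cells, adapted for at least four passages in each medium, were seeded in 1536-well plates (5 μl) and pin-dosed with library compounds in DMSO, 47 μM to 0.79 nM over 11 threefold points.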

[1] = HPLM + 10% dialyzed FBS, 0.000781 µM
[2] = HPLM + 10% dialyzed FBS, 0.00234 µM
[3] = HPLM + 10% dialyzed FBS, 0.00702 µM
[4] = HPLM + 10% dialyzed FBS, 0.0211 µM
[5] = HPLM + 10% dialyzed FBS, 0.0632 µM
[6] = HPLM + 10% dialyzed FBS, 0.19 µM
[7] = HPLM + 10% dialyzed FBS, 0.569 µM
[8] = HPLM + 10% dialyzed FBS, 1.71 µM
[9] = HPLM + 10% dialyzed FBS, 5.12 µM
[10] = HPLM + 10% dialyzed FBS, 15.4 µM
[11] = HPLM + 10% dialyzed FBS, 46.1 µM
[12] = RPMI 5 mM glucose + 10% FBS, 0.000781 µM
[13] = RPMI 5 mM glucose + 10% FBS, 0.00234 µM
[14] = RPMI 5 mM glucose + 10% FBS, 0.00702 µM
[15] = RPMI 5 mM glucose + 10% FBS, 0.0211 µM
[16] = RPMI 5 mM glucose + 10% FBS, 0.0632 µM
[17] = RPMI 5 mM glucose + 10% FBS, 0.19 µM
[18] = RPMI 5 mM glucose + 10% FBS, 0.569 µM
[19] = RPMI 5 mM glucose + 10% FBS, 1.71 µM
[20] = RPMI 5 mM glucose + 10% FBS, 5.12 µM
[21] = RPMI 5 mM glucose + 10% FBS, 15.4 µM
[22] = RPMI 5 mM glucose + 10% FBS, 46.1 µM
[23] = RPMI 5 mM glucose + 10% dialyzed FBS, 0.000781 µM
[24] = RPMI 5 mM glucose + 10% dialyzed FBS, 0.00234 µM
[25] = RPMI 5 mM glucose + 10% dialyzed FBS, 0.00702 µM
[26] = RPMI 5 mM glucose + 10% dialyzed FBS, 0.0211 µM
[27] = RPMI 5 mM glucose + 10% dialyzed FBS, 0.0632 µM
[28] = RPMI 5 mM glucose + 10% dialyzed FBS, 0.19 µM
[29] = RPMI 5 mM glucose + 10% dialyzed FBS, 0.569 µM
[30] = RPMI 5 mM glucose + 10% dialyzed FBS, 1.71 µM
[31] = RPMI 5 mM glucose + 10% dialyzed FBS, 5.12 µM
[32] = RPMI 5 mM glucose + 10% dialyzed FBS, 15.4 µM
[33] = RPMI 5 mM glucose + 10% dialyzed FBS, 46.1 µM

| SMILES | cell viability [1] [%] | cell viability [2] [%] | cell viability [3] [%] | cell viability [4] [%] | cell viability [5] [%] | cell viability [6] [%] | cell viability [7] [%] | cell viability [8] [%] | cell viability [9] [%] | cell viability [10] [%] | cell viability [11] [%] | cell viability [12] [%] | cell viability [13] [%] | cell viability [14] [%] | cell viability [15] [%] | cell viability [16] [%] | cell viability [17] [%] | cell viability [18] [%] | cell viability [19] [%] | cell viability [20] [%] | cell viability [21] [%] | cell viability [22] [%] | cell viability [23] [%] | cell viability [24] [%] | cell viability [25] [%] | cell viability [26] [%] | cell viability [27] [%] | cell viability [28] [%] | cell viability [29] [%] | cell viability [30] [%] | cell viability [31] [%] | cell viability [32] [%] | cell viability [33] [%] |
| --- | --- | --- | --- | --- | --- | --- | --- | --- | --- | --- | --- | --- | --- | --- | --- | --- | --- | --- | --- | --- | --- | --- | --- | --- | --- | --- | --- | --- | --- | --- | --- | --- | --- |
| CC(C)Cn1cnc2c(N)nc3ccccc3c21 | 98.8 | 107 | 106 | 105 | 110 | 110 | 104 | 93.5 | 102 | 91.8 | 77.1 | 104 | 124 | 103 | 115 | 104 | 111 | 104 | 94.1 | 111 | 105 | 72.1 | 105 | 118 | 117 | 116 | 108 | 105 | 120 | 113 | 93.8 | 90.6 | 92 |
| N#Cc1ccnc(N2C(=O)CC[C@H]2C(=O)N(c2cncc(F)c2)[C@H](C(=O)NC2CC(F)(F)C2)c2ccccc2Cl)c1 | 94.8 | 104 | 92.2 | 83.1 | 93.7 | 96.7 | 93.6 | 87.6 | 25.4 | 17.6 | 19.1 | 119 | 144 | 119 | 132 | 146 | 134 | 108 | 50.5 | 19.1 | 14.9 | 16.1 | 104 | 100 | 94.6 | 110 | 91.9 | 101 | 105 | 85.9 | 34 | 16.4 | 17.9 |
| O=[S+]([O-])(NCCNC/C=C/c1ccc(Br)cc1)c1cccc2cnccc12 | 97.5 | 94.8 | 97.5 | 42.4 | 101 | 89.5 | 91.1 | 82.3 | 68.7 | 43.1 | 48.2 | 115 | 119 | 115 | 48.9 | 114 | 131 | 105 | 103 | 62.5 | 58.4 | 43.7 | 95.5 | 96.6 | 93.8 | 45.3 | 91.6 | 87.7 | 83.8 | 74.5 | 56.4 | 41.6 | 34.9 |
| COc1cc2ncnc(Nc3cccc(Cl)c3)c2cc1OC | 99.7 | 112 | 93.1 | 105 | 77.8 | 62.7 | 53.5 | 30.7 | 32.4 | 31.3 | 4.45 | 121 | 118 | 113 | 119 | 76.8 | 50.2 | 50.7 | 19.1 | 7.71 | 6.3 | 4.71 | 98.5 | 111 | 93 | 102 | 77.7 | 58.8 | 59.1 | 22.8 | 19.3 | 9.12 | 3.77 |
| Cc1nc(N)ncc1-c1nc(N2CCOCC2)c2sc(C(C)(C)O)cc2n1 | 97.7 | 114 | 118 | 118 | 113 | 40.1 | 14.2 | 9.64 | 8.13 | 7.64 | 5.09 | 92.7 | 85.3 | 78.2 | 74.2 | 13.6 | 11.7 | 9.07 | 7.73 | 6.03 | 5.59 | 4.95 | 115 | 130 | 112 | 122 | 79.5 | 17.6 | 13 | 9.39 | 7.85 | 6.82 | 5.41 |
| COC(=O)Nc1nc2ccc([S+]([O-])c3ccccc3)cc2[nH]1 (centres undefined) | 77.9 | 97.3 | 96.5 | 100 | 99.5 | 94.5 | 87.9 | 94.4 | 84 | 59.3 | 57.7 | 113 | 114 | 109 | 104 | 116 | 111 | 107 | 121 | 89.6 | 67.7 | 63 | 106 | 112 | 113 | 111 | 124 | 122 | 105 | 122 | 102 | 59.6 | 69.4 |
| OCCN(CCO)c1nc(N2CCCCC2)c2nc(N(CCO)CCO)nc(N3CCCCC3)c2n1 | 108 | 111 | 109 | 109 | 118 | 119 | 117 | 114 | 99.3 | 89.9 | 82.4 | 120 | 111 | 118 | 120 | 127 | 124 | 111 | 104 | 111 | 103 | 72.4 | 128 | 120 | 113 | 104 | 121 | 102 | 143 | 131 | 116 | 106 | 67.8 |
| O=C(O)Cc1cccc(OCCCN(Cc2cccc(C(F)(F)F)c2Cl)CC(c2ccccc2)c2ccccc2)c1 | 109 | 118 | 109 | 97.8 | 113 | 102 | 110 | 100 | 93.5 | 103 | 94.5 | 98.3 | 93.6 | 95.1 | 101 | 86.3 | 84.5 | 92 | 89.5 | 87.3 | 84.8 | 96.4 | 111 | 111 | 109 | 135 | 119 | 113 | 126 | 103 | 96.1 | 99.2 | 111 |
